Experimental data: ChEMBL document CHEMBL1138334, “From astemizole to a novel hit series of small-molecule somatostatin 5 receptor antagonists via GPCR affinity profiling” (J Med Chem, 2007)

Columns and labels:
[1] = biological target: Somatostatin receptor type 5 (Homo sapiens, UniProt P35346); assay: Binding affinity to human SST5R
Histamine H1 receptor = Histamine H1 receptor (Homo sapiens, UniProt P35367); assay: Binding affinity to human histamine H1 receptor
[2] = biological target: Somatostatin receptor type 1 (Homo sapiens, UniProt P30872); assay: Binding affinity to human SST1R
[3] = biological target: Somatostatin receptor type 2 (Homo sapiens, UniProt P30874); assay: Binding affinity to human SST2R
[4] = biological target: Somatostatin receptor type 3 (Homo sapiens, UniProt P32745); assay: Binding affinity to human SST3R
[5] = biological target: Voltage-gated inwardly rectifying potassium channel KCNH2 (Homo sapiens, UniProt Q12809); assay: Binding affinity to human ERG channel
Chain of Voltage-gated inwardly rectifying potassium channel KCNH2 (Q12809 whole entry): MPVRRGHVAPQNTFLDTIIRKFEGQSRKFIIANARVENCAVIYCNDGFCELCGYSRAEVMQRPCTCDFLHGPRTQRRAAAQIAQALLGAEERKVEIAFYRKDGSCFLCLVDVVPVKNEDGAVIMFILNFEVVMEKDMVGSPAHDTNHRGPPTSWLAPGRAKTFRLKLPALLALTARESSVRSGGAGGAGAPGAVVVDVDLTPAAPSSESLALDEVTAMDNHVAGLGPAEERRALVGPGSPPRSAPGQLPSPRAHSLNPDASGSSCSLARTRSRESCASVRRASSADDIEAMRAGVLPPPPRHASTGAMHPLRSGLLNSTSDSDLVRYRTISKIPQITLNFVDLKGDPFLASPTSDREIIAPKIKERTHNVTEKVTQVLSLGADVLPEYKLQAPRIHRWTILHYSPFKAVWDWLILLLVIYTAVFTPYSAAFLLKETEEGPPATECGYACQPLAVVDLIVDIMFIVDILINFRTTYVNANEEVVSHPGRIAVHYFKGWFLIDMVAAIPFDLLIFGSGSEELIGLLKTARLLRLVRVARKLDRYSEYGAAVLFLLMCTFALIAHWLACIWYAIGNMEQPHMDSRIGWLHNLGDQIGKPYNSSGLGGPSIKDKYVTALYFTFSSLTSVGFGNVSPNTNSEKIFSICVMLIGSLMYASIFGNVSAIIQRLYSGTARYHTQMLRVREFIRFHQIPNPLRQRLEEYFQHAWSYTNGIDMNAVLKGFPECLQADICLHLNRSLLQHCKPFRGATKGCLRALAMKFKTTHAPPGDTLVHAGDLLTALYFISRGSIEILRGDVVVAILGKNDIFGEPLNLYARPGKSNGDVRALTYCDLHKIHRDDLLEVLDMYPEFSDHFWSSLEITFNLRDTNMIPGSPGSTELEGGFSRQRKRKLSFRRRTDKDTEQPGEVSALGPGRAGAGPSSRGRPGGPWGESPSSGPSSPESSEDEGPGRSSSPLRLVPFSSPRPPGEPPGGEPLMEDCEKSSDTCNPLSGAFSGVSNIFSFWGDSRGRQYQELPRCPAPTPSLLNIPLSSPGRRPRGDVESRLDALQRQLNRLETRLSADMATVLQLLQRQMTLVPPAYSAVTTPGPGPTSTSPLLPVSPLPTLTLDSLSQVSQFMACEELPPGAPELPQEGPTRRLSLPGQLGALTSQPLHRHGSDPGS

Chain of Somatostatin receptor type 5 (P35346 whole entry): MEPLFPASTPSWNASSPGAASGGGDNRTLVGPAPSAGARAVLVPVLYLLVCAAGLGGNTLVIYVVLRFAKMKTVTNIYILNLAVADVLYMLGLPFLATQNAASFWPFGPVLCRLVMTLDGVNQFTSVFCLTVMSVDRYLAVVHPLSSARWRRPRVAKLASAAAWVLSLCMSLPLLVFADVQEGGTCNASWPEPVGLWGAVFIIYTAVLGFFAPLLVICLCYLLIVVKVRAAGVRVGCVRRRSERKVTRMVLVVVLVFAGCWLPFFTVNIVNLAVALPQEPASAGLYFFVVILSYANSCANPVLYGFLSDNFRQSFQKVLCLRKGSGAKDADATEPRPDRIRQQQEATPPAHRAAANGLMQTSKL
Chain of Histamine H1 receptor (P35367 whole entry): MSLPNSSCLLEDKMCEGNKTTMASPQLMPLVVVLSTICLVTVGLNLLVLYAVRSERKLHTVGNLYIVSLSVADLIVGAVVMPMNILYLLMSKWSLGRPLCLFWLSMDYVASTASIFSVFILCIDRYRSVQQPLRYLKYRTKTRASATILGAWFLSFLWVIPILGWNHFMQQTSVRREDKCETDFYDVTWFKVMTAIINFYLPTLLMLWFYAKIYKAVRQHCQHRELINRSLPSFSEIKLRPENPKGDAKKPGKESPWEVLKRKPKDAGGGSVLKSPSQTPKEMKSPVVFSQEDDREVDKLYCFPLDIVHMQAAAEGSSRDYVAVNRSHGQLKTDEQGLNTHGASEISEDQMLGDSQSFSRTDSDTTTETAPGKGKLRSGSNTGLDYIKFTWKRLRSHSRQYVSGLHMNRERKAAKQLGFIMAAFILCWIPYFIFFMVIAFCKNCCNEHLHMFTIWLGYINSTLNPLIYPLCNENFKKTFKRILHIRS
Chain of Somatostatin receptor type 3 (P32745 whole entry): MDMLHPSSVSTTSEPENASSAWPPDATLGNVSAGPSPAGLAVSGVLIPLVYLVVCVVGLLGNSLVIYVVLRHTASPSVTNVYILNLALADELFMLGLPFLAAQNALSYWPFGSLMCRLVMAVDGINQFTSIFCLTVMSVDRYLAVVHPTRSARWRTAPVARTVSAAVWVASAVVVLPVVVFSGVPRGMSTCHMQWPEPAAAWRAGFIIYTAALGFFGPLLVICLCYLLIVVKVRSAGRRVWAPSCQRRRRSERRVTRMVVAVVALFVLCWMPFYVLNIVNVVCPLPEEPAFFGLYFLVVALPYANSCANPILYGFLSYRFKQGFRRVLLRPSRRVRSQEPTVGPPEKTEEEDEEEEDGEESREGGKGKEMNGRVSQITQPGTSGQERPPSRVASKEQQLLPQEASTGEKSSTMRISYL
Chain of Somatostatin receptor type 1 (P30872 whole entry): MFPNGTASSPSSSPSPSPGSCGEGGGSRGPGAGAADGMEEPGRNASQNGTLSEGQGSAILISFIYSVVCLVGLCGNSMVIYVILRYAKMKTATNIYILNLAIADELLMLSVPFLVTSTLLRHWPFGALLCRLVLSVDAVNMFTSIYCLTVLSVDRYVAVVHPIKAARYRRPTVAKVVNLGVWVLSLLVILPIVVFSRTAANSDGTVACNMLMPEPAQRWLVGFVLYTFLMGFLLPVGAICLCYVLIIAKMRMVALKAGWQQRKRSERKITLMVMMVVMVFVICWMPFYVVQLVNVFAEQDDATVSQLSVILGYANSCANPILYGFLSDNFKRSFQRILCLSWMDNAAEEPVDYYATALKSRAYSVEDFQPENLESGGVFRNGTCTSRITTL
Chain of Somatostatin receptor type 2 (P30874 whole entry): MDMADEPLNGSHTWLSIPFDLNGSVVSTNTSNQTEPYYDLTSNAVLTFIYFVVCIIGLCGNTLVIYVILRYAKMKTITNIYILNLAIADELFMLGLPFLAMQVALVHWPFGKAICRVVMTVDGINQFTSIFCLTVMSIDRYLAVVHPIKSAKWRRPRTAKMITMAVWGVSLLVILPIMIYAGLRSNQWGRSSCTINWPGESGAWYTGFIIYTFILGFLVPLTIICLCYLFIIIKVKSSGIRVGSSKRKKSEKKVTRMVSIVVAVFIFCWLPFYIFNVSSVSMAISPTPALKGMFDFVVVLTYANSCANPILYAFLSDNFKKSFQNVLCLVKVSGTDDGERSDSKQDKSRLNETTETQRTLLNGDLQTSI

SMILES | Ki [1] | Ki (Histamine H1 receptor) | also measured
COc1cc(CN2CCC(NC(=O)c3ccccc3)CC2)c(OC)c2ccccc12 | 120 nM | – | –
COc1cc(CN2CCC3(CC2)OC(=O)c2ccccc23)c(OC)c2ccccc12 | 1100 nM | – | –
CCOc1cc(CN2CCC(NC(=O)c3cccc(S(C)(=O)=O)c3)CC2)ccc1Cl | 60 nM | > 5000 nM | IC50 [5]: 1300 nM

Molecules with a lower Ki [1], results first:

Ki [1] | Ki (Histamine H1 receptor) | SMILES | also measured
40 nM | – | COc1cc(CN2CCC(NC(=O)c3cncc(C)c3)CC2)c(OC)c2ccccc12 | –
20 nM | 270 nM | CCOc1cc(CN2CCC(NC(=O)c3cncc(C)c3)CC2)ccc1Cl | Ki [2]: 5100 nM; Ki [3]: > 10000 nM; Ki [4]: > 10000 nM
20 nM | – | COc1cc(CN2CCC(NC(=O)c3ccc(C(C)(C)C)cc3)CC2)c(OC)c2ccccc12 | –
